Laboratory results from ChEMBL document CHEMBL3885861, “Open TG-GATES”.

Organism: Rattus norvegicus
Assay: Open TG-GATES - Regimen: Daily Repeat
Assay type: toxicity, organism-based, Sprague-Dawley
Parameters: regimen Daily Repeat, gender Male, age 6 weeks
Settings: in vivo, po, 5 mg/kg, route gavage, dose level Middle; for APTT / Bas / Eos / Fbg / Hb / Ht / Lym / MCH / MCHC / MCV / Mono / Neu / PT / Plat / RBC / Ret / WBC: tissue Blood; for KIDNEY_L / KIDNEY_R / KIDNEY_TOTAL: tissue Kidney; for LIVER: tissue Liver; for ALP / ALT / AST / BUN / CRE / Ca / Cl / DBIL / GLC / IP / K / LDH / Na / PL / RALB / TBIL / TC / TG / TP / gamma-GTP: tissue Plasma

O=P1(N(CCCl)CCCl)NCCCO1 (stereo not drawn) [CYCLOPHOSPHAMIDE ANHYDROUS]
TERMINAL_BW (72 h, time 3 day): 226.6 g
APTT (72 h, time 3 day): 21.9 s
Bas (72 h, time 3 day): 0%
Eos (72 h, time 3 day): 1%
Fbg (72 h, time 3 day): 272.4 mg/dL
Hb (72 h, time 3 day): 13 g/dL
Ht (72 h, time 3 day): 39.1%
Lym (72 h, time 3 day): 81.6%
MCH (72 h, time 3 day): 21.9 pg
MCHC (72 h, time 3 day): 33.2%
MCV (72 h, time 3 day): 65.8 fL
Mono (72 h, time 3 day): 2.4%
Neu (72 h, time 3 day): 14%
PT (72 h, time 3 day): 16.9 s
Plat (72 h, time 3 day): 114.8 x10_4/uL
RBC (72 h, time 3 day): 593 x10_4/ul
Ret (72 h, time 3 day): 6.3%
WBC (72 h, time 3 day): 54.2 x10_2/uL
KIDNEY_L (72 h, time 3 day): 1 g
KIDNEY_R (72 h, time 3 day): 1 g
KIDNEY_TOTAL (72 h, time 3 day): 2 g
LIVER (72 h, time 3 day): 10.7 g
ALP (72 h, time 3 day): 1691.2 IU/L
ALT (72 h, time 3 day): 40.6 IU/L
AST (72 h, time 3 day): 68.6 IU/L
BUN (72 h, time 3 day): 17 mg/dL
CRE (72 h, time 3 day): 0.2 mg/dL
Ca (72 h, time 3 day): 10.9 mg/dL
Cl (72 h, time 3 day): 104.6 meq/L
DBIL (72 h, time 3 day): 0.002 mg/dL
GLC (72 h, time 3 day): 182.8 mg/dL
IP (72 h, time 3 day): 8 mg/dL
K (72 h, time 3 day): 4.1 meq/L
LDH (72 h, time 3 day): 172 IU/L
Na (72 h, time 3 day): 141.6 meq/L
PL (72 h, time 3 day): 149.6 mg/dL
RALB (72 h, time 3 day): 3 g/dL
TBIL (72 h, time 3 day): 0.022 mg/dL
TC (72 h, time 3 day): 75.4 mg/dL
TG (72 h, time 3 day): 94.4 mg/dL
TP (72 h, time 3 day): 5.5 g/dL
gamma-GTP (72 h, time 3 day): 1 IU/L
TERMINAL_BW ([…], time 7 day): 245.9 g
TERMINAL_BW ([…], time 14 day): 288.6 g
TERMINAL_BW ([…], time 28 day): 359.3 g
APTT ([…], time 7 day): 22 s
Bas ([…], time 7 day): 0%
Eos ([…], time 7 day): 0.6%
Fbg ([…], time 7 day): 273.8 mg/dL
Hb ([…], time 7 day): 13.5 g/dL
Ht ([…], time 7 day): 40.4%
Lym ([…], time 7 day): 82.4%
MCH ([…], time 7 day): 20.9 pg
MCHC ([…], time 7 day): 33.4%
MCV ([…], time 7 day): 62.7 fL
Mono ([…], time 7 day): 3.2%
Neu ([…], time 7 day): 12.6%
PT ([…], time 7 day): 15.8 s
Plat ([…], time 7 day): 133.9 x10_4/uL
RBC ([…], time 7 day): 644.2 x10_4/ul
Ret ([…], time 7 day): 5.3%
WBC ([…], time 7 day): 36.4 x10_2/uL
APTT ([…], time 14 day): 22 s
Bas ([…], time 14 day): 0%
Eos ([…], time 14 day): 1.4%
Fbg ([…], time 14 day): 305.8 mg/dL
Hb ([…], time 14 day): 13.8 g/dL
Ht ([…], time 14 day): 40.5%
Lym ([…], time 14 day): 75.2%
MCH ([…], time 14 day): 20.4 pg
MCHC ([…], time 14 day): 34%
MCV ([…], time 14 day): 59.9 fL
Mono ([…], time 14 day): 4.6%
Neu ([…], time 14 day): 17.2%
PT ([…], time 14 day): 14.6 s
Plat ([…], time 14 day): 116.3 x10_4/uL
RBC ([…], time 14 day): 676.8 x10_4/ul
Ret ([…], time 14 day): 3.5%
WBC ([…], time 14 day): 27.7 x10_2/uL
APTT ([…], time 28 day): 21.7 s
Bas ([…], time 28 day): 0%
Eos ([…], time 28 day): 1.4%
Fbg ([…], time 28 day): 308 mg/dL
Hb ([…], time 28 day): 14.5 g/dL
Ht ([…], time 28 day): 42.5%
Lym ([…], time 28 day): 73%
MCH ([…], time 28 day): 19.3 pg
MCHC ([…], time 28 day): 34.3%
MCV ([…], time 28 day): 56.5 fL
Mono ([…], time 28 day): 3.6%
Neu ([…], time 28 day): 20.8%
PT ([…], time 28 day): 16 s
Plat ([…], time 28 day): 110.7 x10_4/uL
RBC ([…], time 28 day): 752.2 x10_4/ul
Ret ([…], time 28 day): 3%
WBC ([…], time 28 day): 35.5 x10_2/uL
KIDNEY_L ([…], time 7 day): 1 g
KIDNEY_R ([…], time 7 day): 1 g
KIDNEY_TOTAL ([…], time 7 day): 2 g
KIDNEY_L ([…], time 14 day): 1.2 g
KIDNEY_R ([…], time 14 day): 1.2 g
KIDNEY_TOTAL ([…], time 14 day): 2.3 g
KIDNEY_L ([…], time 28 day): 1.3 g
KIDNEY_R ([…], time 28 day): 1.3 g
KIDNEY_TOTAL ([…], time 28 day): 2.6 g
LIVER ([…], time 7 day): 10.8 g
LIVER ([…], time 14 day): 12.3 g
LIVER ([…], time 28 day): 14.6 g
ALP ([…], time 7 day): 1412.8 IU/L
ALT ([…], time 7 day): 38.2 IU/L
AST ([…], time 7 day): 65 IU/L
BUN ([…], time 7 day): 18.8 mg/dL
CRE ([…], time 7 day): 0.2 mg/dL
Ca ([…], time 7 day): 11 mg/dL
Cl ([…], time 7 day): 105.6 meq/L
DBIL ([…], time 7 day): 0 mg/dL
GLC ([…], time 7 day): 180.4 mg/dL
IP ([…], time 7 day): 6.8 mg/dL
K ([…], time 7 day): 3.9 meq/L
LDH ([…], time 7 day): 130 IU/L
Na ([…], time 7 day): 142.8 meq/L
PL ([…], time 7 day): 141.6 mg/dL
RALB ([…], time 7 day): 2.9 g/dL
TBIL ([…], time 7 day): 0.016 mg/dL
TC ([…], time 7 day): 74.6 mg/dL
TG ([…], time 7 day): 115.2 mg/dL
TP ([…], time 7 day): 5.5 g/dL
gamma-GTP ([…], time 7 day): 1.4 IU/L
ALP ([…], time 14 day): 1134.4 IU/L
ALT ([…], time 14 day): 36.6 IU/L
AST ([…], time 14 day): 57.2 IU/L
BUN ([…], time 14 day): 17.2 mg/dL
CRE ([…], time 14 day): 0.2 mg/dL
Ca ([…], time 14 day): 10.6 mg/dL
Cl ([…], time 14 day): 108.6 meq/L
DBIL ([…], time 14 day): 0 mg/dL
GLC ([…], time 14 day): 171 mg/dL
IP ([…], time 14 day): 7.1 mg/dL
K ([…], time 14 day): 4 meq/L
LDH ([…], time 14 day): 148.8 IU/L
Na ([…], time 14 day): 143.6 meq/L
PL ([…], time 14 day): 150.4 mg/dL
RALB ([…], time 14 day): 3 g/dL
TBIL ([…], time 14 day): 0.016 mg/dL
TC ([…], time 14 day): 80.4 mg/dL
TG ([…], time 14 day): 129.2 mg/dL
TP ([…], time 14 day): 5.7 g/dL
gamma-GTP ([…], time 14 day): 1 IU/L
ALP ([…], time 28 day): 973.8 IU/L
ALT ([…], time 28 day): 34.4 IU/L
AST ([…], time 28 day): 57.8 IU/L
BUN ([…], time 28 day): 16.8 mg/dL
CRE ([…], time 28 day): 0.2 mg/dL
Ca ([…], time 28 day): 10.5 mg/dL
Cl ([…], time 28 day): 106.6 meq/L
DBIL ([…], time 28 day): 0.002 mg/dL
GLC ([…], time 28 day): 190.2 mg/dL
IP ([…], time 28 day): 6.5 mg/dL
K ([…], time 28 day): 3.8 meq/L
LDH ([…], time 28 day): 133 IU/L
Na ([…], time 28 day): 144 meq/L
PL ([…], time 28 day): 135.8 mg/dL
RALB ([…], time 28 day): 3.1 g/dL
TBIL ([…], time 28 day): 0.024 mg/dL
TC ([…], time 28 day): 68.8 mg/dL
TG ([…], time 28 day): 111.6 mg/dL
TP ([…], time 28 day): 5.9 g/dL
gamma-GTP ([…], time 28 day): 1.2 IU/L
